Experimental data: patent publication US8735437B2, “Imidazolidine carboxamide derivatives as lipase and phospholipase inhibitors” (Sanofi, priority 2007, dated 2014)

What follows are compounds tested against T1, endothelial lipase (EL) (Homo sapiens, UniProt Q9Y5X9) (assay: EL inhibition assay (EL activity assay, fluorescent Bodipy-labelled phospholipid substrate)). Details: enzyme solution = conditioned medium of recombinant cell lines (CHO, HEK293); 37° C., 90 minutes; pH=7.4.
T1 construct: made in house; host or cells: recombinant cell lines (CHO, HEK293); concentrated conditioned medium used as enzyme solution
T1 sequence (Q9Y5X9 21-500): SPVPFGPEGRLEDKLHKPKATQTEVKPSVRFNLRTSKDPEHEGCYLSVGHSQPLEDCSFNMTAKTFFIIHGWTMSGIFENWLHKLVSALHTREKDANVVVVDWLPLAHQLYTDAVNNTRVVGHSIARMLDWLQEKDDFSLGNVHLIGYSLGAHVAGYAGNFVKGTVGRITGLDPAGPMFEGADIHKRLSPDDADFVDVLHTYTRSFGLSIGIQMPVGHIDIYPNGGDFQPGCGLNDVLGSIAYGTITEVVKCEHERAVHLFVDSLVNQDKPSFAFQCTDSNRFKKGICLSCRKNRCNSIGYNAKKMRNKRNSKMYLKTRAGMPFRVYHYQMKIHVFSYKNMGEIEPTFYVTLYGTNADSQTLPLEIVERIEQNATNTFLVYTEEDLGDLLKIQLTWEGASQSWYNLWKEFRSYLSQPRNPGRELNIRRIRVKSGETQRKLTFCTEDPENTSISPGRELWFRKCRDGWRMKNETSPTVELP
Format: biochemical
Text: EL is released as secretory protein in high concentration into cell culture medium (conditioned medium) by recombinant cell lines (CHO, HEK293). This is employed as enzyme solution after concentration.
The phospholipase-specific substrate 1,2-bis(4,4-difluoro-5,7-dimethyl-4-bora-3a,4a-diaza-s-indacene-3-undecanoyl)-sn-glycero-3-phosphocholine, (manufacturer Molecular Probes) is used to characterize the enzymatic activity of endothelial lipase and the effect of inhibitors. Hydrolysis of the A1 ester linkage of this phospholipid by the enzyme liberates a fatty acid labeled with the fluorescent dye Bodipy which can be detected after separation by thin-layer chromatography on an HPTLC plate (silica gel 60, Merck) or directly in the reaction vessel by measuring the fluorescence. The substrate solution is prepared by dissolving 100 μg of 1,2-bis(4,4-difluoro-5,7-dimethyl-4-bora-3a,4a-diaza-s-indacene-3-undecanoyl)-sn-glycero-3-phospho-choline (manufacturer Molecular Probes) in 100 μl of DMSO and taking it up in 2.4 mg of tripalmitin (Sigma) in 393 μl of chloroform which contains 20 mg/ml of DOP-choline (1,2-dioleoyl-sn-glycero-3-phosphocholine). 39.3 μl of this lipid mixture are transferred into a fresh reaction vessel. After evaporation of the solvent, the lipid mixture is dissolved in 4 ml of 200 mM TRIS-HCl, 150 mM sodium chloride, pH=7.4, by sonication twice. The subsequent enzymic reaction takes place at 37° C. for 90 minutes. For this purpose, 20 μl of the substrate solution are incubated with 2 μl of inhibitor of appropriate concentration (dissolved in 10% DMSO, 10% strength DMSO solution is used as control) and 2 μl of enzyme solution (conditioned medium). Then 4 μl of the assay mixture are loaded onto an HPTLC plate (silica gel 60, Merck), and the liberated fluorescent dye is separated for detection with an eluent (diethyl ether:petroleum benzine:acetic acid [78:22:1]). After evaporation of the eluent, the plate is read in a fluorescence scanner. An increased release of the fluorescent dye in the uninhibited reaction is to be observed as a measure of the enzymic activity.
The enzymatic activity is reduced as a function of the inhibitor concentration used, and the inhibitor concentration at which a half-maximum enzymic activity is observed is called IC50.

Structure (SMILES) | IC50
CCCCCCNC(=O)N1C(=O)CN(Cc2ccccc2)C1=O [Example 1, 3-Benzyl-2,5-dioxoimidazolidine-1-hexylcarboxamide] | 0.005 µM
CCCCCCCNC(=O)N1C(=O)CN(Cc2ccccc2)C1=O [Example 7, 3-Benzyl-2,5-dioxoimidazolidine-1-heptylcarboxamide] | 0.083 µM
CCCCCCNC(=O)N1C(=O)CN(C)C1=O [Example 8, 3-Methyl-2,5-dioxoimidazolidine-1-hexyl carboxamide] | 0.047 µM
CCCCCCNC(=O)N1C(=O)N(C)C(C)(C)C1=O [Example 9, 3,4,4-Trimethyl-2,5-dioxoimidazolidine-1-hexylcarboxamide] | 0.037 µM
CCCCCCCNC(=O)N1C(=O)CN(CCCC)C1=O [Example 21, 3-Butyl-2,5-dioxoimidazolidine-1-heptylcarboxamide] | 0.059 µM
CCCCCCNC(=O)N1C(=O)C2CCCCN2C1=O (centres unmarked) [Example 23, 1,3-Dioxohexahydroimidazo[1,5-a]pyridine-2-hexylcarboxamide] | 0.044 µM
CCCCCCNC(=O)N1C(=O)C2Cc3ccccc3CN2C1=O (centres unmarked) [Example 24, 1,3-Dioxo-1,5,10,10a-tetrahydroimidazo[1,5-b]isoquinoline-2-hexylcarboxamide] | 0.039 µM
Cc1ccccc1CNC(=O)N1C(=O)C2Cc3ccccc3CN2C1=O (centres unmarked) [Example 29, 1,3-Dioxo-1,5,10,10a-tetrahydroimidazo[1,5-b]isoquinoline-2-methylbenzyl-2-carboxamide] | 0.143 µM

The next lines start with the values.

IC50 | Structure (SMILES)
0.147 µM | Cc1ccccc1CNC(=O)N1C(=O)CN(Cc2ccccc2)C1=O [Example 2, 3-Benzyl-2,5-dioxoimidazolidine-1-(2-methylbenzyl)carboxamide]
0.145 µM | O=C1CN(Cc2ccccc2)C(=O)N1C(=O)N[C@H]1CCc2ccccc21 [Example 3, 3-Benzyl-2,5-dioxoimidazolidine-1-((S)-indan-1-yl)carboxamide]
0.0005 µM | O=C1CN(Cc2ccccc2)C(=O)N1C(=O)N[C@@H]1CCc2ccccc21 [Example 4, 3-Benzyl-2,5-dioxoimidazolidine-1-((R)-indan-1-yl)carboxamide]
0.008 µM | O=C1CN(Cc2ccccc2)C(=O)N1C(=O)NC1CCCc2ccccc21 (centres unmarked) [Example 5, 3-Benzyl-2,5-dioxoimidazolidine-1-(1,2,3,4-tetrahydronaphthalen-1-yl)carboxamide]
0.143 µM | O=C1CN(Cc2ccccc2)C(=O)N1C(=O)NCCc1cccs1 [Example 6, 3-Benzyl-2,5-dioxoimidazolidine-1-(2-thiophen-2-ylethyl)carboxamide]
0.059 µM | O=C(NC1CCCc2ccccc21)N1C(=O)C2Cc3ccccc3CN2C1=O (centres unmarked) [Example 28, 1,3-Dioxo-1,5,10,10a-tetrahydroimidazo[1,5-b]isoquinoline-2-(1,2,3,4-tetra-hydronaphthalen-1-yl)carboxamide]
